{"source": "patent US20130040979A1", "about": "“CCR1 INHIBITORS USEFUL FOR THE TREAMENT OF MULTIPLE MYELOMA AND OTHER DISORDERS” (Millennium Pharmaceuticals, Inc., priority 2007, published 2013)", "assay_type_in_all_cases": "cell-based, human", "key": {"[1]": {"test_system": "MM cell adhesion to fibronectin (FBN)", "test": "Adhesion assay: multiple myeloma cells to fibronectin", "details": "6 hours incubation, FBN 20 μg/mL", "experimental": "(§1) Cell lines: The dexamethasone (Dex)-sensitive (MM.1S) human MM cell line was provided by Dr Steven Rosen (Northwestern University, Chicago, Ill.). The INA6 human IL-6-dependent MM cell line was provided by Dr Renate Burger (University of Kiel, Kiel, Germany) (see Burger et al., J. Hematol. 2:42-53 (2001)) and cultured in the presence of 2.5 ng/mL IL-6 (R&D Systems, Minneapolis, Minn.). The OPM1 myeloma cell line was provided by Dr Lief Bergsagel (Mayo Clinic, Scottsdale, Ariz.), and the U266 cell line was obtained from the American Type Culture Collection (Rockville, Md.). All MM cell lines were cultured in RPMI 1640 media (Sigma Chemical) containing 10% fetal bovine serum (FBS), 2 mM L-glutamine, 100 U/mL penicillin, and 100 μg/mL streptomycin (Gibco, Grand Island, N.Y.).\n(§2) Multiple myeloma cell lines were labeled with calcein AM (Invitrogen) according to the manufacturer's instructions and plated in a 96-well plates with OCs, fibronectin (FBN; 20 μg/mL), or media, with or without Compound 51. After 6 hours of incubation, plates were washed and fluorescence of the adherent cells was measured using the Multimode Reader Mithras LB 940 (Berthold Technologies, Wildbad, Germany). […] As also shown in FIG. 3, there were no effects on MM cell adhesion to fibronection (FBN)."}, "[2]": {"test_system": "INA6 cells", "test": "Short-term co-culture of osteoclasts and multiple myeloma cells (thymidine uptake)", "details": "48 hours", "experimental": "(§3) Co-culture experiments: Osteoclasts were harvested with cell dissociation buffer (Invitrogen, Carlsbad, Calif.) and seeded in 96-well or 24-well plates (approximately 1.5−3×10^4 cells/cm^2). After washing, multiple myeloma cells were added to the wells and incubated with media or with Compound 51 (10 nM) for the specified times at 37° C. For multiple myeloma cell proliferation, DNA synthesis was measured by tritiated thymidine uptake (3H-TdR; Perkin Elmer, Boston, Mass.), pulsing multiple myeloma cells with 3H-TdR (0.5 μCi/well [0.0185 MBq]L) during the last 8 hours of 48-hour cultures. At the end of the culture, cells were harvested onto paper filters with an automatic cell harvester (Cambridge Technology, Cambridge, Mass.) and counted using the LKB Betaplate scintillation counter (Wallac, Gaithersburg, Md.). To assess cell survival, viable multiple myeloma cells were counted by trypan blue staining.\nOsteoclasts were seeded in a 96-well plate at a density of 10^4 cells/well and cocultured with INA6 cells (3×10^4 cells/well) for 48 hours."}, "[3]": {"test_system": "multiple myeloma cells co-cultured with osteoclasts", "test": "Long-term co-culture of osteoclasts and multiple myeloma cells", "text": "MM primary cells: Patient tumor cells were isolated as described in Kiziltepe et al., Blood 110:709-718 (2007). Following appropriate informed consent, obtained in accordance with the Declaration of Helsinki and with approval by the Institutional Review Board of the Dana-Farber Cancer Institute (Boston, Mass.), MM patient cells were separated from bone marrow (BM) samples by antibody-mediated positive selection using anti-CD138 magnetic activated cell separation microbeads (Miltenyi Biotech, Gladbach, Germany).\nas §3\nOsteoclasts were plated in a 24-well plate (3×10^4 cells/well) with either INA6 mutliple myeloma cells (5×10^3 cells/well) or primary patient multiple myeloma cells (3×10^5 cells/well) for 5 days using the general method described above."}, "[4]": {"test_system": "osteoclasts generated from peripheral blood mononuclear cells (PBMCs)", "test": "Osteoclast formation and TRAP assay", "experimental": "Osteoclast formation. Osteoclasts were generated from peripheral blood mononuclear cells (PBMCs) from healthy volunteers by Ficoll-Paque gradient separation and cultured in 6-well or 96-well plates (0.5×10^6 cells/cm^2). After 2 hours, nonadherent PBMCs were removed, and adherent cells were cultured for 21 days in α-MEM containing 10% FBS and 1% penicillin-streptomycin (Mediatech, Herndon, Va.), as well as 50 ng/mL of macrophage colony-stimulating factor (M-CSF; R&D Systems, Minneapolis, Minn.) and RANKL (PeproTech, Rocky Hill, N.J.).\nAfter 3 weeks, cells were fixed with citrate-acetone solution and stained for tartrate-resistant acid phosphatase (TRAP) using an acid phosphatase leukocyte staining kit (Sigma Chemical) according to the manufacturer's instructions. TRAP^+ OCs containing 3 or more nuclei per cell were enumerated. Each OC formation assay was performed at least 3 times using PBMCs from different donors."}, "[5]": {"test_system": "multiple myeloma cell adhesion to osteoclasts", "test": "Adhesion assay: multiple myeloma cells to osteoclasts", "details": "6 hours incubation; independent of CCR1 expression on MM cells", "experimental": "as §1, §2"}, "[6]": {"test_system": "osteoclast activity (bone resorption)", "test": "Pit formation assay (osteoclast bone resorption on dentin slices)", "details": "10 nM, 3 weeks", "experimental": "Osteoclast activity was assayed by bone resorption enumerating resorption pits. PBMCs were cultured (0.5×10^6 cells/well) on dentin slices (Immunodiagnostic Systems, Boldon, United Kingdom) in 96-well plates as per the manufacturer's guidelines, and then stimulated with RANKL and M-CSF (50 ng/mL); Compound 51 was added as indicated in FIG. 2. After 3 weeks, adherent cells were scraped off gently with 0.1% Triton. Bone slices were washed in distilled water and stained with 1% toluidine solution. Resorption pits were then quantified by light microscopy using the public domain National Institutes of Health (NIH) Image J software version 1.36b. Each pit area assay was performed at least 3 times with PBMCs from different donors."}}}
{"smiles": "CC(C)(O)c1ccc2c(c1)C(=CCCN1CC[C@](O)(c3ccc(Cl)cc3)C(C)(C)C1)c1cccnc1CO2", "note": "[Compound 51, (4S)-4-(4-chlorophenyl)-1-{3-[7-(1-hydroxy-1-methylethyl)[1]benzoxepino[3,4-b]pyridin-5(11H)-ylidene]propyl}-3,3-dimethylpiperidin-4-ol]", "values": [{"measurement": "MM cell adhesion to fibronectin (FBN)", "setting": "[1]", "result": "no effects"}, {"measurement": "antiproliferative effect on MM cells alone", "setting": "[2]; no osteoclasts", "result": "only modest antiproliferative effects"}, {"measurement": "reduction of MM cell proliferative response induced by OCs", "setting": "[2]; INA6 cells co-cultured with osteoclasts, P<0.05", "result": 50, "unit": "%"}, {"measurement": "survival advantage conferred by osteoclasts", "setting": "[3]; INA6 cells, 5 days co-culture, 10 nM", "result": "almost completely abrogated"}, {"measurement": "survival advantage conferred by osteoclasts", "setting": "[3]; MM1.S cells (data not shown)", "result": "same effect was also noted"}, {"measurement": "survival advantage conferred by osteoclasts", "setting": "[3]; primary MM cells, 5 days co-culture, 10 nM", "result": "almost completely abrogated"}, {"measurement": "reduction of osteoclast number compared to control", "setting": "[4]; 10 nM, 3 weeks, TRAP+ OCs with 3 or more nuclei, p<0.05", "result": "40-60%"}, {"measurement": "dose dependence of decrease in osteoclast number", "setting": "[4]; doses up to 100 nM", "result": "No dose-dependent effect"}, {"measurement": "multiple myeloma cell adhesion to osteoclasts", "setting": "[5]", "result": "almost complety inhibited"}, {"measurement": "resorptive tracks and pit numbers", "setting": "[6]; dentin slices", "result": "almost complete abrogation"}, {"measurement": "bone resorption area, mean±SD, of total area per slice", "setting": "[6]; control 8.7%±1.9%, P<0.01", "result": "2.4%±1.2"}]}
